{"source": "patent US11021501B2", "about": "“Creatine phosphate analog prodrugs, compositions and methods of use thereof” (Farmington Pharma Development, priority 2015, dated 2021)", "origin": "cited, not measured here", "key": {"[1]": {"tested_on": "creatine phosphate levels"}, "[2]": {"conditions": "animals fed a diet containing up to 1%"}}, "note": "Read-outs that look alike come from different tables or passages of the source.", "data": [{"smiles": "CN(CC(=O)O)C(=N)N", "note": "[creatine]", "values": [{"measurement": "overall increase of creatine phosphate levels", "setting": "[1]; creatine supplementation over weeks", "value": "< 50", "unit": "%"}, {"measurement": "duration of increase in tissue creatine phosphate levels", "setting": "[1]; following oral creatine supplementation", "value": "> 14", "unit": "days"}, {"measurement": "increase of cerebral creatine phosphate", "setting": "[1]; healthy volunteers, oral creatine administration", "value": "about 10%"}]}, {"smiles": "CN(CC(=O)O)C(=N)NP(=O)(O)O", "note": "[Creatine phosphate, creatine phosphate]", "values": [{"measurement": "adverse side effects", "setting": "patients with cardiac diseases, intravenous injection up to 8 gm/day", "value": "without adverse side effects"}]}, {"smiles": "NC1=NCCN1CC(=O)O", "note": "[cyclocreatine]", "values": [{"measurement": "adverse effects", "setting": "[2]", "value": "do not exhibit adverse effects"}]}, {"smiles": "CN(CC(=O)O)C(=N)N.O", "note": "[creatine monohydrate]", "values": [{"measurement": "adverse side effects", "setting": "athletes and body builders, 2-3 gm/day", "value": "without adverse side effects"}]}]}
